Key:
[1] = test system: E6+HLA-A*02:01+ tumor line (Caski); test: Dynamic monitoring of killing of Caski tumor line; format: cell-based; settings: Caski cells
Source text: (§1) FIG. 16B depicts dynamic monitoring of E6^+HLA-A*02:01^+tumor line (Caski) to assess the capacity of the engineered TCR to specifically kill tumor lines expressing the HPV E6 protein at 10:1 effector to target ratio. […] To assess non-specific (alloreactivity) background killing by the CD8 T cells, the growth of CD8 T cells that were stimulated and expanded but NOT subjected to CRISPR or LV editing are represented by Curve 3.

[2] = test system: patient-derived cancer line expressing the HPV E6 protein; test: Dynamic monitoring of killing of patient-derived cancer line; format: cell-based, human
Source text: as §1, with “16A” for “16B”, “patient-derived cancer” for “E6^+HLA-A*02:01^+tumor”, “line” for “line (Caski)”, “the” for “the engineered”, “not” for “NOT”

Q: With `N.N.[Cl][Pt][Cl]` [cisplatin] as the compound, how does the “time to kill tumor line” value [1] read?
A: ≤ 48 h

Q: And the “time to kill tumor line” value [2]?
A: ≤ 48 h

Reference: US12427195B1, “Methods of neoantigen identification” (La Jolla Institute for Immunology, priority 2019, dated 2025)
